Assay in all cases: DTP human tumour cell line panel, 48 h
Test [1] deals with HCT-116 colon.
For test [2], the system named is HCT-15 colon.
The test system of test [3] is HL-60(TB) leukemia.
In test [4] the test system is M14 melanoma.
For test [5], the system named is NCI-H226 lung.
Test [6] concerns NCI-H23 lung.
Test [7] concerns PC-3 prostate.
For test [8], the system named is UACC-257 melanoma.

This note sets out measurements from PubChem BioAssay (NCI).

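Five compound concentrations were applied to cells in 96-well plates for 48 hours; endpoints were derived by simple linear interpolation of the resulting dose-response curve. Abbreviation: GI50, concentration required for 50% inhibition of growth. TGI marks complete inhibition of growth.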

By GI50 is commonly meant the concentration giving 50% growth inhibition. As usually defined, the TGI is the concentration at which net growth stops. Lower therefore signals more potent growth arrest.

As to `Cn1c2ccccc2c2c(-c3ccccc3)[n+]3ccncc3nc21`, the GI50 in test [1] was over 100 µM; in test [2] it was over 100000 nM; in test [3], over 100000 nM; in test [4], over 100000 nM; in test [5], over 100 µM; in test [6], over 100 µM. For the same compound, the GI50 is over 100 µM in test [7] and 59500 nM in test [8]. The TGI in test [1], in test [2], in test [3], in test [4], in test [5] and in test [6] was over 100 µM throughout. Further, the TGI in test [7] and in test [8] was over 100 µM each time.
Take `O=C(/C(Br)=C/c1ccccc1)c1ccccc1`: the GI50 in test [1] is 1.64 µM; in test [2], 1020 nM; in test [3], 2220 nM; in test [4], 1360 nM; in test [5] it was 3.5 µM; in test [6], 2.71 µM. Also, the GI50 in test [7] was 3.11 µM; in test [8], 1860 nM. The concentration for total growth inhibition (TGI) in test [1] amounted to 3.12 µM; in test [2], 2.47 µM; in test [3], 6.47 µM; in test [4], 3.23 µM; in test [5], 14.1 µM; in test [6], 8.38 µM. Moreover, the TGI in test [7] was determined as 10.5 µM; in test [8], 4.49 µM.
With `CC1=CC(=Nc2ccc(N(CCCl)CCCl)cc2)C=C(C)C1=O`, the GI50 was 0.935 µM in test [1]; 1630 nM in test [2]; 309 nM in test [3]; 603 nM in test [4]; 1.2 µM in test [5]; 0.768 µM in test [6]. Besides, the results for the GI50 in test [7] and in test [8] were 1.48 µM and 1490 nM, respectively. Also, the total growth inhibition concentration (TGI) in test [1] was found to be 2.38 µM; in test [2], 11 µM; in test [3], 2.9 µM; in test [4], 3.98 µM; in test [5], 4.83 µM; in test [6], 4.36 µM. In addition, the TGI in test [7] came out at 7.08 µM; in test [8], 5.12 µM.
As to `C[C@]12CC[C@H]3[C@@H](CC=C4C[C@@H](O)CC[C@@]43C)[C@@H]1CC[C@@H]2N(CCO)CCO`, the TGI in test [1], in test [2], in test [4], in test [5], in test [6] and in test [7] was over 100 µM in each case. Moreover, the TGI in test [8] was over 100 µM.
Regarding `Oc1c(CN2CCC(N3CCCCC3)CC2)cc(Cc2cc(CN3CCC(N4CCCCC4)CC3)c(O)c3ncccc23)c2cccnc12`, the GI50 in test [1] is 0.725 µM; in test [2], 797 nM; in test [4], 1110 nM; in test [5], 1.49 µM; in test [6] it was 2.28 µM; in test [7], 1.28 µM. Further, in test [8], the GI50 was 2080 nM. For the same compound, the TGI in test [1] worked out at 7.17 µM; in test [2], 14.6 µM; in test [4], 2.75 µM; in test [5] it was 4.53 µM; in test [6] it was 14 µM; in test [7], 15.9 µM. Further, the TGI in test [8] worked out at 4.31 µM.
`COc1cc([N+](=O)[O-])cc2c3c(n(C)c12)[C@@]1(C)CCC2c4ccc(OCc5ccccc5)cc4CCC2C1C3` (some centres not stated): the GI50 in test [1] is 78.5 µM; in test [2], 53500 nM; in test [4], over 100000 nM; in test [5], 80.4 µM; in test [6], 68.8 µM; in test [7], over 100 µM. Also, the GI50 in test [8] is 85600 nM. Further, the total growth inhibition concentration (TGI) in test [1], in test [2], in test [4], in test [5], in test [6] and in test [7] was over 100 µM each time. The TGI in test [8] is over 100 µM.
On to `CC(C)(C)OC(=O)N1CCc2c(sc3ncnc(N/N=C/c4cccc5ccccc45)c23)C1`, for which the GI50 is 3.22 µM in test [1]; 3860 nM in test [2]; 2810 nM in test [3]; 5.29 µM in test [5]; 5.25 µM in test [6]; 4.59 µM in test [7]. In addition, in test [8], the GI50 was 5800 nM. The TGI in test [1] is 30.4 µM; in test [2] it was over 100 µM; in test [3] it was 13.4 µM; in test [5] it was 34.7 µM; in test [6] it was over 100 µM; in test [7], over 100 µM. Further, the concentration for total growth inhibition (TGI) in test [8] was 69.6 µM.
On to `O=C1CCCCN1CCCCC#Cc1ccccc1C#Cc1ccc([N+](=O)[O-])cc1`, for which the GI50 was 4.18 µM in test [1]; 1500 nM in test [2]; 1750 nM in test [3]; 5160 nM in test [4]; 5.03 µM in test [5]; 4.23 µM in test [6]. Further, the GI50 in test [8] is 2890 nM. In addition, the TGI in test [1] came out at 13.5 µM; in test [2] it was 9.89 µM; in test [3], 6.64 µM; in test [4], 19.3 µM; in test [5] it was 22.1 µM; in test [6], 17.1 µM. In test [8], this compound showed a total growth inhibition concentration (TGI) of 8.24 µM.
`CCC(C)c1c(Cl)nc(Cl)nc1Cl` (configuration not stated): the total growth inhibition concentration (TGI) in test [1] is 17.9 µM; in test [2], 35.3 µM; in test [3] it was over 100 µM; in test [4] it was 3.43 µM; in test [5], 7.75 µM; in test [6], 15.5 µM. This compound yielded a TGI in test [7] of 44.1 µM.
Consider `CS(=O)(=O)c1ccc([C@H]2O[C@@H](CO)C[C@]2(O)c2ccc(S(C)(=O)=O)cc2)cc1`, for which the GI50 in test [1] was over 100 µM; in test [2] it was over 100000 nM; in test [3], over 100000 nM; in test [5] it was over 100 µM; in test [6] it was over 100 µM; in test [7], over 100 µM. In addition, the GI50 in test [8] is over 100000 nM. Further, the TGI in test [1], in test [2], in test [3], in test [5], in test [6] and in test [7] was over 100 µM in each case. In test [8], the TGI was over 100 µM.
